From publication PMC7762994 (Viruses, 2020)
Read-outs that look alike come from different tables or passages of the source.

How the values were obtained:
[1] = target: T1, DNAJC3 (Homo sapiens, UniProt Q13217); assay: 2D-TPP in U87 cells
[2] = test system: CoV 229E; assay: CoV 229E titer in Huh7 cells, end-point dilution assay; type: cell-based, Coronavirus 229E; settings: MOI 5, 10 µM, 24 h
[3] = target: T2, HSPA1A (Homo sapiens, UniProt P0DMV8); assay: 2D-TPP in U87 cells
[4] = test system: Hazara virus (HAZV); assay: microbe, parasite or virus in culture; type: cell-based; settings: SW13, 24 h
[5] = target: T3, HSPA9 (Homo sapiens, UniProt P38646); assay: 2D-TPP in U87 cells; type: binding
T3 construct: endogenous in cells; host or cells: U87 cells

[6] = target: T4, HSPA2 (Homo sapiens, UniProt P54652); assay: 2D-TPP in U87 cells; type: binding; settings: 1.5 h, destabilized, read-out: pEC50 of protein destabilization, HSPA2 (converted)
T4 construct: endogenous in cells; host or cells: U87 cells

[7] = target: T5, DNAJB11 (Homo sapiens, UniProt Q9UBS4); assay: TPP-TR in HAZV-infected SW13 cells
T5 sequence (Q9UBS4 23-358): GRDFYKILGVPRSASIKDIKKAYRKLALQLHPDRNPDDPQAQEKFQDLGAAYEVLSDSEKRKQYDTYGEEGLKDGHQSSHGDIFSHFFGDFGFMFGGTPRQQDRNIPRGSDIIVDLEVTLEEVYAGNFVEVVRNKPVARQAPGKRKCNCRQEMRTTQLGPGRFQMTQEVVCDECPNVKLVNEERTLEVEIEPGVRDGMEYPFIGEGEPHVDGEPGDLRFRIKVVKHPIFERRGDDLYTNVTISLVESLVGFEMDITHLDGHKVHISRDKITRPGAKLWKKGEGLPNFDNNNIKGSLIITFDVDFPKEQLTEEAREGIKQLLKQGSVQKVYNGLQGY

[8] = target: T6, Hsp70 (Homo sapiens, UniProt P0DMV8); assay: Cellular thermal shift assay; type: binding; settings: U87 and SW13 cells, 56 and 59 °C, CETSA-TR at 20 μM and dose dependently
T6 construct: endogenous in cells; host or cells: U87 or SW13 cells

[9] = target: HARS2 (Homo sapiens, UniProt P49590); assay: TPP-TR in HAZV-infected SW13 cells; settings: read-out: ΔTm of HARS2
[10] = target: T5, DNAJB11; assay: 2D-TPP in U87 cells
[11] = test system: SW13 cells; assay: Viability of SW13 cells by nuclei count in the HAZV antiviral assay; type: cell-based; settings: Homo sapiens; HAZV, SW13, MOI 1, 24 h; read-out: Viability (nuclei count) EC50
[12] = target: T7, HYOU1 (Homo sapiens, UniProt Q9Y4L1); assay: 2D-TPP in U87 cells; type: binding; settings: 1.5 h, stabilized, read-out: pEC50 of protein stabilization, HYOU1 (converted)
T7 construct: endogenous in cells; host or cells: U87 cells

[13] = target: T8, CALR (Homo sapiens, UniProt P27797); assay: 2D-TPP in U87 cells; type: binding; settings: 1.5 h, stabilized, read-out: pEC50 of protein stabilization, CALR (converted)
T8 construct: endogenous in cells; host or cells: U87 cells

[14] = target: T9, DNAJC13 (Homo sapiens, UniProt O75165); assay: 2D-TPP in U87 cells; type: binding; settings: 1.5 h, stabilized, read-out: pEC50 of protein stabilization, DNAJC13 (converted)
T9 construct: endogenous in cells; host or cells: U87 cells

[15] = target: T10, OGG1 (Homo sapiens, UniProt O15527); assay: Cellular thermal shift assay (CETSA), Western blot; type: binding; set-up: endogenous in cells; host or cells: SW13 or U87 cells
[16] = target: T1, DNAJC3; assay: TPP-TR in HAZV-infected SW13 cells; settings: 20 μM, 4 h
[17] = test system: Hazara virus (HAZV); assay: microbe, parasite or virus in culture; type: cell-based; settings: Hazara virus
[18] = target: T2, HSPA1A; assay: TPP-TR in HAZV-infected SW13 cells; settings: 20 μM, 4 h
[19] = target: T11, HSPA12A (Homo sapiens, UniProt O43301); assay: 2D-TPP in U87 cells; type: binding; settings: 1.5 h, destabilized, read-out: pEC50 of protein destabilization, HSPA12A (converted)
T11 construct: endogenous in cells; host or cells: U87 cells

[20] = target: T12, HSP90B1 (Homo sapiens, UniProt P14625); assay: 2D-TPP in U87 cells; type: binding; settings: 1.5 h, stabilized, read-out: pEC50 of protein stabilization, HSP90B1 (converted)
T12 construct: endogenous in cells; host or cells: U87 cells

[21] = target: T13, HSPA8 (Homo sapiens, UniProt P11142); assay: 2D-TPP in U87 cells; type: binding; settings: 1.5 h, destabilized, read-out: pEC50 of protein destabilization, HSPA8 (converted)
T13 construct: endogenous in cells; host or cells: U87 cells

[22] = target: T10, OGG1; assay: In vitro OGG1 activity assay; type: biochemical
[23] = target: T14, Hsp70 - HAZV NP interaction (Homo sapiens, UniProt P0DMV8); assay: Hsp70 immunoprecipitation in HAZV-infected Hek293T cells; type: cell-based; settings: HAZV MOI 1, 20 μM, 1 h, statistically not significant
T14 construct: endogenous in cells; host or cells: HEK293T cells infected with HAZV (MOI 1)

[24] = target: T15, EDEM3 (Homo sapiens, UniProt Q9BZQ6); assay: TPP-TR in HAZV-infected SW13 cells; settings: 20 μM, 4 h
[25] = target: T15, EDEM3; assay: 2D-TPP in U87 cells; type: binding; set-up: endogenous in cells; host or cells: U87 cells; settings: 1.5 h, stabilized, read-out: pEC50 of protein stabilization, EDEM3 (converted)

T10 sequence (O15527 whole entry): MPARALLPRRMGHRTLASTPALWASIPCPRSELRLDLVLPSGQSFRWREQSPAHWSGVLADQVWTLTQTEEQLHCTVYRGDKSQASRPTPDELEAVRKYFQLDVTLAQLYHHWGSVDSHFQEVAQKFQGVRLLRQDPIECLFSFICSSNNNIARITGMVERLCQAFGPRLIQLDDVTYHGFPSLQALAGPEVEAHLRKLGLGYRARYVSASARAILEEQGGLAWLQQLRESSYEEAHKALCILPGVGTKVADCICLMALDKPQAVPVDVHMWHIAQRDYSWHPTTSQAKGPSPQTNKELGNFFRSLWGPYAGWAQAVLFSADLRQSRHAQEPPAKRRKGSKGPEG
T15 sequence (Q9BZQ6 42-932): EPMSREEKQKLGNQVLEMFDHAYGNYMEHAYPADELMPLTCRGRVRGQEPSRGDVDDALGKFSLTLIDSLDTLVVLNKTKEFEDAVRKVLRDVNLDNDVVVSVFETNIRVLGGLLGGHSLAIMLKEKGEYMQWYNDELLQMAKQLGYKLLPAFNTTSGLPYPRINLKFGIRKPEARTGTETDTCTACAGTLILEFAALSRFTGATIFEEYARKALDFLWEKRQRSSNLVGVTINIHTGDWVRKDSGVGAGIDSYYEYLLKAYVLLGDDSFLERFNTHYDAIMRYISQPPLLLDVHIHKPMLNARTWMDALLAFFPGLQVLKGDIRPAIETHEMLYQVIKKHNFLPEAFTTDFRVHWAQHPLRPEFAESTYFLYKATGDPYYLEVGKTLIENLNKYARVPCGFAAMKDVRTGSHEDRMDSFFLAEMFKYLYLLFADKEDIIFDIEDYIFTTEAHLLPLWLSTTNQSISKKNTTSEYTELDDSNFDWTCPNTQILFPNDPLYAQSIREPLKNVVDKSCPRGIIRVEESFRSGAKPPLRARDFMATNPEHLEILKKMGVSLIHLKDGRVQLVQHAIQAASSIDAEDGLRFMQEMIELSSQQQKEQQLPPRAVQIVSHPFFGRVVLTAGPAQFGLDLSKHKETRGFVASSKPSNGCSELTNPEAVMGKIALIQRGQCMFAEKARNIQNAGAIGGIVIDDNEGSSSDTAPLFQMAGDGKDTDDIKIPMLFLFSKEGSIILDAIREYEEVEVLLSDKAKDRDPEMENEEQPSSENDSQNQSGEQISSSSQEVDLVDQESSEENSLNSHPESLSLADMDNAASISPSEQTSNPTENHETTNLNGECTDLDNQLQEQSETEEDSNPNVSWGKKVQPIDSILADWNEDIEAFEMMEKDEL
T1 sequence (Q13217 32-504): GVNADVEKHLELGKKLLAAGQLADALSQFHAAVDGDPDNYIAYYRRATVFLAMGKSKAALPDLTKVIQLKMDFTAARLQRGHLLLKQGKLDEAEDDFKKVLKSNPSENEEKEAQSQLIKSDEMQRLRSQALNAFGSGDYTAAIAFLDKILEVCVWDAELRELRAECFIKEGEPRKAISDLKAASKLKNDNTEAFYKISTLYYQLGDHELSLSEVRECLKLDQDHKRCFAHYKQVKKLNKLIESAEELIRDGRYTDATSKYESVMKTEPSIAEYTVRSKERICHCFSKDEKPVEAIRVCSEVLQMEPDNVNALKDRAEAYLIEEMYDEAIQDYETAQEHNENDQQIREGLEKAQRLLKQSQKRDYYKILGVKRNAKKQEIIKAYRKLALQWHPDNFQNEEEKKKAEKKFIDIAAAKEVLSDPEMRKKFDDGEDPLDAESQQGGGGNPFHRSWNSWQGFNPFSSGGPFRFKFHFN
T2 sequence (P0DMV8 whole entry): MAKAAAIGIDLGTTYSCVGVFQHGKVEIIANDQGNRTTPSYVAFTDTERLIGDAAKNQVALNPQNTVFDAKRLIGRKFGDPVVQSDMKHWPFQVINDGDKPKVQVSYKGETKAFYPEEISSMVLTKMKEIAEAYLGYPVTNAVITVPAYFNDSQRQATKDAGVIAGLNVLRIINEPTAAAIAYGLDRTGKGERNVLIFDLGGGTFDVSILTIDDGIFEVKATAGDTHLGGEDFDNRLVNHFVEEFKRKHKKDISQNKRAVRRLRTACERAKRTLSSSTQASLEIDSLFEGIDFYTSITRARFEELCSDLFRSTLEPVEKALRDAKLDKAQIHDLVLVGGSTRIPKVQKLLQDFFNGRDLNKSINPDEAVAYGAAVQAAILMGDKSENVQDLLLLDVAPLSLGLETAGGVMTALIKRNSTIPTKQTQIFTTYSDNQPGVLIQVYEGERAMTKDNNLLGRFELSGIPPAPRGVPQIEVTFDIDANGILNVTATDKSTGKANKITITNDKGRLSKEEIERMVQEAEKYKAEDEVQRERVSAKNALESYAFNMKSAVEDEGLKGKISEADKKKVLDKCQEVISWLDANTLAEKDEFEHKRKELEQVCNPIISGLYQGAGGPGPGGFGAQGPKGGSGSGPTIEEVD
T3 sequence (P38646 47-679): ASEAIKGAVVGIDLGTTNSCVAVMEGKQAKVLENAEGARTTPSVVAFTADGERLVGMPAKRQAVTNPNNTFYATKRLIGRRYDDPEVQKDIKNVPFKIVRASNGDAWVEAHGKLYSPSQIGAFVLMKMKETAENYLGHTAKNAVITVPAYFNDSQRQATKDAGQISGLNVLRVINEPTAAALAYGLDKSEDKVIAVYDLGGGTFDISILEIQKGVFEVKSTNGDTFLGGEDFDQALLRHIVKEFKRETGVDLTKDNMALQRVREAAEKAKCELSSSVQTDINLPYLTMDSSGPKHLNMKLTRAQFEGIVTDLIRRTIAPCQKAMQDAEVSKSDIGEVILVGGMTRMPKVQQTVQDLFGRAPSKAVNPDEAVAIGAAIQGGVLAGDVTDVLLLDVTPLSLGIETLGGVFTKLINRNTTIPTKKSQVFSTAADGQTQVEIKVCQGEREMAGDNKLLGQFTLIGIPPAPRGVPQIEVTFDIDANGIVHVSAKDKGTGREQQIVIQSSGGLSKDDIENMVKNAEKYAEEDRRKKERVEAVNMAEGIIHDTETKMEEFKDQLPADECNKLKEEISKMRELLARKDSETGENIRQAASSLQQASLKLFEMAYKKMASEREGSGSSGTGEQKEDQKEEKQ
T6 sequence (P0DMV8 whole entry): as the sequence (P0DMV8 whole entry) above
T7 sequence (Q9Y4L1 33-999): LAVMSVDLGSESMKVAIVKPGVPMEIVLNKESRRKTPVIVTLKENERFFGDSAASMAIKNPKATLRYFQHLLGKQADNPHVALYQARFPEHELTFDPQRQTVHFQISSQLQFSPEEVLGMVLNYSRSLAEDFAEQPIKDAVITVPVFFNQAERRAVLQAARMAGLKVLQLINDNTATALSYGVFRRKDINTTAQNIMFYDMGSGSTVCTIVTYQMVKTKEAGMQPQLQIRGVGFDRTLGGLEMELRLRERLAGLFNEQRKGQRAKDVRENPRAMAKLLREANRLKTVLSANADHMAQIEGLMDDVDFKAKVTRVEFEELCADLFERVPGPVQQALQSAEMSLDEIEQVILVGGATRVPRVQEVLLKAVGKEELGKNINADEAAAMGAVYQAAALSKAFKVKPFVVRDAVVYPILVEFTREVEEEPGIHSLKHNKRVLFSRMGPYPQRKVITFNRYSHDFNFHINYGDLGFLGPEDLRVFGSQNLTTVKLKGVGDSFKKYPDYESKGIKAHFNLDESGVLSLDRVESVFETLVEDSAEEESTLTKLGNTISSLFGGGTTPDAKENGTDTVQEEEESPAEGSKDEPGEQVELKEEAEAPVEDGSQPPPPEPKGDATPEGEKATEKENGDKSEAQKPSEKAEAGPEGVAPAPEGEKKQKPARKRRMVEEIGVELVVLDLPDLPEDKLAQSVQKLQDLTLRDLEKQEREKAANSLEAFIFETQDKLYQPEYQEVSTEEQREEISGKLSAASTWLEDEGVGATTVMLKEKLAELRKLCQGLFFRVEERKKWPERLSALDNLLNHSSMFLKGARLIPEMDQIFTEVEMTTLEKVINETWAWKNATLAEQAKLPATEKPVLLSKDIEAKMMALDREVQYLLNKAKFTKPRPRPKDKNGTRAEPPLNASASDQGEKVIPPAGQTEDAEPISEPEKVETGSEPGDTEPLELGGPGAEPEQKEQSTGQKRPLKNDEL
T8 sequence (P27797 18-417): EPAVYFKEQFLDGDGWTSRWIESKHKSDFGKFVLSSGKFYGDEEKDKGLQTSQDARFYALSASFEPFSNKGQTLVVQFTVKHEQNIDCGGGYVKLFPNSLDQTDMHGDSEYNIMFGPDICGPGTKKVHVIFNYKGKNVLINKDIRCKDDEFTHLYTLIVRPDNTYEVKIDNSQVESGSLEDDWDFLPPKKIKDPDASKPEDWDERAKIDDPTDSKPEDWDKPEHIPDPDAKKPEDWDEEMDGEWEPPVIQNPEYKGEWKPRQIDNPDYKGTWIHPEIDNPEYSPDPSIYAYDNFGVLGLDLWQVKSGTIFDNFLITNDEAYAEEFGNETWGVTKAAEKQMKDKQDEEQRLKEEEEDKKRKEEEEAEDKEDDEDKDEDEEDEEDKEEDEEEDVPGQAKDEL

In the case of `CCOC(=O)c1cnn(-c2cccc3c2[nH]c(=O)n3C2CCN(C(=O)Nc3ccc(I)cc3)CC2)c1` [TH6744, ethyl 1-(1-(1-((4-iodophenyl)carbamoyl)piperidin-4-yl)-2-oxo-2,3-dihydro-1H-benzo[d]imidazol-4-yl)-1H-pyrazole-4-carboxylate], the EC50 [1] is reported as 3.16 µM, the “reduction of CoV 229E titer” value [2] is reported as 95% and the EC50 [3] is reported as 3.16 µM. It also gave an IC50 ([4]; read-out: Antiviral on primary infection IC50 [µM]) of 10.9 µM, an EC50 ([4]; read-out: EC50 Infected cells (primary infection)) of 10.9 µM and an inhibition at 10 µM ([4]; read-out: Viral inhibition on primary infection (%)) of 85%. The “thermal stability change of HSPA9” value [5] was “destabilized”, the EC50 [6] was 3.16 µM and the “thermal stability change of DNAJB11” value ([7]; 20 μM, 4 h) was “stabilized”. For the same compound, the ΔTm at 20 µM ([7]; read-out: ΔTm of DNAJB11) was 13.6 °C, the “Hsp70 thermal stability (CETSA)” value [8] was “Hsp70 destabilization” and the ΔTm at 20 µM [9] was -9.2 °C. For the same compound, the EC50 [10] was 7.94 µM, the EC50 [11] was 37.4 µM and the EC50 [12] was 10 µM. For the same compound, the EC50 [13] was 3.98 µM, the EC50 [14] was 1000 nM and the “binding to OGG1 (CETSA, Western blotting)” value ([15]; SW13 cells, 20 μM) was “binding to its known target OGG1”. For the same compound, the “binding to OGG1 (isothermal dose-response CETSA at 47 °C, Western blotting)” value ([15]; U87 cells) was “binding to its known target OGG1 in U87 cells”, the “thermal stability change of DNAJC3” value [16] was “stabilized” and the IC50 ([17]; SW13, 24 h, read-out: Antiviral on titer (µM) IC50 [µM]) was 2.9 µM. The EC50 ([17]; SW13, read-out: EC50 Viral titer) was 2900 nM, the inhibition at 10 µM ([17]; Vero, 24 h, read-out: Viral inhibition on titer (%)) was 90% and the “thermal stability change of HSPA1A” value [18] was “destabilized”. The EC50 [19] was 12.6 µM, the EC50 [20] was 6.31 µM and the EC50 [21] was 5.01 µM. The IC50 [22] was 680 nM, the “OGG1 activity (in words)” value ([22]; Figure 3A) was “Nanomolar OGG1activity” and the “increase of HAZV NP interaction with Hsp70 (signal intensity)” value [23] was 2 fold. The “thermal stability change of EDEM3” value [24] was “stabilized” and the EC50 [25] was 1000 nM.
